Values quoted from earlier work, collected in US20020177614A1, “Methods for treating nuerodegenerative diseases including alzheimer's” (priority 2001, published 2002).

Tested on: Diphtheria and Pseudomonas toxins
Settings: several bacterial ADP-ribosylating toxins, including Diphtheria and Pseudomonas toxins

NC(=O)c1cccnc1 [nicotinamide]
effect on bacterial ADP-ribosylating toxins: prevent or reverse the effects
